Test [1] relates to adult mongrel dogs. The test can be described thus: Acute in vivo cardiotonic activity in anesthetized dogs. To be noted: Canis lupus familiaris, iv, relative to controls; for change in vivo at 0.375 mg/kg: dose 0.375 mpk; for change in vivo at 0.875 mg/kg: dose 0.875 mpk; for change in vivo at 1.87 mg/kg: dose 1.87 mpk. Set-up: species or system mongrel dog. On the procedure:
The acute in vivo cardiotonic activity of compounds prepared according to the present invention was determined according to a modification of the procedure described by Alousi et al., Circ.
In particular, adult mongrel dogs were anesthetized with sodium pentobarbital and were artificially respired. Arterial pressure was monitored via a femoral artery, and the pulse pressure was used to trigger a cardiotachometer for heart rate. Left ventricular pressure was determined with a Millar catheter, and dP/dT (the change in ventricular pressure with time) was derived. Cardiac output was determined by measuring ascending aortic blood flow with an electromagnetic flow probe, and myocardial contractile force was measured with a Walton Brodie strain gauge sutured to the right ventricle. Lead II EKG was also recorded.
A standard dose (10 μg/kg/min) of dopamine was administered to assess myocardial responsiveness.
Compounds of the invention were administered by intravenous infusion and the effects on cardiovascular parameters were determined.

For test [2], the system named is adult mongrel dogs. Briefly: Renal vasodilating activity in anesthetized dogs. In kind it is in vivo, mongrel dog. As to conditions: Canis lupus familiaris. The procedure: Goldberg et al., J. Pharmacol. Exp. Ther., 163, 188 (1968), performed an investigation of the structural requirements for dopamine-like renal vasodilation of phenethylamines and apomorphine. The following procedure is a variation of the assay described in that report.
Adult mongrel dogs were anesthetized and surgically prepared for electromagnetic measurement of renal artery blood flow. A carotid artery was cannulated for measuring arterial blood pressure and drugs were administered intravenously or intraarterially (via the renal artery). Heart rate was monitored with a cardiotachometer. Renal vascular resistance was calculated as the ratio of mean arterial blood pressure to renal artery blood flow. Dopamine was infused intravenously at 3 μg/kg/min for ten minutes (at an infusion rate of about 1 ml/min) to determine responsiveness of each dog to renal dopamine receptor stimulation. Cumulative dose-response data were obtained by infusing a compound of this invention at progressively increasing (usually three-fold) infusion rates, each dose being infused for five minutes. The maximum percent change from pre-drug control in renal artery blood flow (or in renal vascular resistance) was determined for each infusion dose.
RBF, RVR, MABP, and HR values are percent changes in renal blood flow, renal vascular resistance, mean arterial blood pressure, and heart rate, respectively, relative to control values.

Where [3] appears, read: read-out: CF: percent change in cardiac force.
The mark [4] stands for this setting: read-out: HR: percent change in heart rate.
Setting [5] is: read-out: MABP: percent change in mean arterial blood pressure.
Setting [6] is: read-out: dP/dT: maximum percent change in left ventricular pressure with time.
Where [7] appears, read: dose 6.2 mpk, relative to controls, read-out: HR: percent change in heart rate.
Where [8] appears, read: dose 6.2 mpk, relative to controls, read-out: RBF: percent change in renal blood flow.
The mark [9] stands for this setting: dose 6.2 mpk, relative to controls, read-out: RVR: percent change in renal vascular resistance.
Setting [10] is: read-out: HR: percent change in heart rate, dose 6.2 mpk, relative to controls.
[11] abbreviates: read-out: MABP: percent change in mean arterial blood pressure, dose 6.2 mpk, relative to controls.
[12] abbreviates: read-out: RBF: percent change in renal blood flow, dose 6.2 mpk, relative to controls.
Where [13] appears, read: read-out: RVR: percent change in renal vascular resistance, dose 6.2 mpk, relative to controls.
Setting [14] is: dose 6.2 mpk, relative to controls, read-out: MABP: percent change in mean arterial blood pressure.
The mark [15] stands for this setting: read-out: HR: percent change in heart rate, dose 1.2 mpk, relative to controls.
[16] abbreviates: read-out: MABP: percent change in mean arterial blood pressure, dose 1.2 mpk, relative to controls.
[17] abbreviates: read-out: RBF: percent change in renal blood flow, dose 1.2 mpk, relative to controls.
Setting [18] is: read-out: RVR: percent change in renal vascular resistance, dose 1.2 mpk, relative to controls.

Read-outs that look alike come from different tables or passages of the source.

Regarding `CCOc1cc2c(C)nc(OC(=O)CC)c([N+](=O)[O-])c2cc1OC` [Cmpd 4], the change in vivo at 0.375 mg/kg in the test with adult mongrel dogs [1] (setting [3]) was 100%; in the test on adult mongrel dogs [1] (setting [4]), 7%; in the test on adult mongrel dogs [1] (setting [5]), -25%; in the test with adult mongrel dogs [1] (setting [6]) it was 46%.

For `COc1cc2c(C)nc(OC(=O)c3ccccc3)c([N+](=O)[O-])c2cc1OC` [Cmpd 7], the change in vivo at 0.875 mg/kg is 59% in the test on adult mongrel dogs [1] (setting [3]), 4% in the test on adult mongrel dogs [1] (setting [4]), -10% in the test on adult mongrel dogs [1] (setting [5]) and 34% in the test on adult mongrel dogs [1] (setting [6]).

Consider `CCOc1cc2c(C)nc(OC(=O)c3ccccc3)c([N+](=O)[O-])c2cc1OC` [Cmpd 8], for which the change in vivo at 0.375 mg/kg with adult mongrel dogs [1] (setting [3]) is 124%; in the test with adult mongrel dogs [1] (setting [4]) it was 10%; in the test with adult mongrel dogs [1] (setting [5]), -20%; in the test with adult mongrel dogs [1] (setting [6]), 54%.

On to `COc1cc2c(C)nc(OC(=O)C(C)(C)C)c([N+](=O)[O-])c2cc1OC` [Cmpd 12], for which the change in vivo at 6.2 mg/kg with adult mongrel dogs [2] (setting [7]) is 12%; in the test on adult mongrel dogs [2] (setting [8]), 38%; in the test with adult mongrel dogs [2] (setting [9]), -26%. The change in vivo at 1.87 mg/kg is 70% in the test on adult mongrel dogs [1] (setting [3]), 14% with adult mongrel dogs [1] (setting [4]), -10% in the test on adult mongrel dogs [1] (setting [5]) and 51% in the test with adult mongrel dogs [1] (setting [6]).

In the case of `COc1cc2c(C)nc(OC(=O)N(C)C)c([N+](=O)[O-])c2cc1OC` [Cmpd 13], the change in vivo at 6.2 mg/kg was 12% in the test on adult mongrel dogs [2] (setting [10]), -5% in the test on adult mongrel dogs [2] (setting [11]), 8% in the test on adult mongrel dogs [2] (setting [12]) and -12% in the test on adult mongrel dogs [2] (setting [13]). For the same compound, the change in vivo at 1.87 mg/kg with adult mongrel dogs [1] (setting [3]) is 49%; in the test on adult mongrel dogs [1] (setting [4]) it was 6%; in the test on adult mongrel dogs [1] (setting [5]), -8%; in the test with adult mongrel dogs [1] (setting [6]), 24%.

As for `CCOc1cc2c([N+](=O)[O-])c(OC(=O)C(C)(C)C)nc(C)c2cc1OC` [Cmpd 23], the change in vivo at 1.87 mg/kg in the test on adult mongrel dogs [1] (setting [3]) came to 27%; with adult mongrel dogs [1] (setting [4]), 5%; in the test on adult mongrel dogs [1] (setting [5]), 3%; in the test on adult mongrel dogs [1] (setting [6]), 24%.

Consider `COc1cc2c(C)nc(OS(=O)(=O)N(C)C)c([N+](=O)[O-])c2cc1OC` [Cmpd 25], for which the change in vivo at 6.2 mg/kg with adult mongrel dogs [2] (setting [7]) was 32%; in the test with adult mongrel dogs [2] (setting [14]), -12%; in the test with adult mongrel dogs [2] (setting [8]), 61%; in the test on adult mongrel dogs [2] (setting [9]) it was -46%. The change in vivo at 1.87 mg/kg with adult mongrel dogs [1] (setting [3]) is 49%; in the test on adult mongrel dogs [1] (setting [4]) it was 5%; in the test with adult mongrel dogs [1] (setting [5]) it was 12%; in the test with adult mongrel dogs [1] (setting [6]), 61%.

Consider `CCN(CC)C(=O)Oc1nc(C)c2cc(OC)c(OC)cc2c1[N+](=O)[O-]` [Cmpd 27, 3-Diethylcarbamyloxy-6,7-dimethoxy-1-methyl-4-nitroisoquinoline], for which the change in vivo at 6.2 mg/kg with adult mongrel dogs [2] (setting [10]) is 13%; in the test on adult mongrel dogs [2] (setting [11]), -12%; in the test on adult mongrel dogs [2] (setting [13]), -30%. Further, the change in vivo at 1.87 mg/kg with adult mongrel dogs [1] (setting [3]) is 87%; with adult mongrel dogs [1] (setting [4]), 46%; in the test with adult mongrel dogs [1] (setting [5]) it was 17%; with adult mongrel dogs [1] (setting [6]), 41%.

Take `CCOc1cc2c(C)nc(OC(=O)N(CC)CC)c([N+](=O)[O-])c2cc1OC` [Cmpd 28]: the change in vivo at 6.2 mg/kg was 5% with adult mongrel dogs [2] (setting [10]), -18% in the test on adult mongrel dogs [2] (setting [11]), 50% with adult mongrel dogs [2] (setting [12]) and -45% with adult mongrel dogs [2] (setting [13]). The change in vivo at 0.875 mg/kg was 71% in the test on adult mongrel dogs [1] (setting [3]), 27% in the test on adult mongrel dogs [1] (setting [4]), -4% in the test on adult mongrel dogs [1] (setting [5]) and 70% with adult mongrel dogs [1] (setting [6]).

On to `CCN(CC)c1c(OC(C)=O)nc(C)c2cc(OC)c(OC)cc12` [Cmpd 29, 3-Acetoxy-4-(N,N-diethylamino)-6,7-dimethoxy-1-methylisoquinoline 1/2 Hydrate], for which the change in vivo at 1.87 mg/kg came to 79% in the test with adult mongrel dogs [1] (setting [3]), 13% in the test with adult mongrel dogs [1] (setting [4]), 6% in the test with adult mongrel dogs [1] (setting [5]) and 58% in the test with adult mongrel dogs [1] (setting [6]).

As to `COc1cc2c(C)nc(OC(=O)N(c3ccccc3)c3ccccc3)c(N)c2cc1OC` [Cmpd 36], the change in vivo at 1.87 mg/kg was 26% in the test on adult mongrel dogs [1] (setting [3]), 9% with adult mongrel dogs [1] (setting [4]), -1% in the test on adult mongrel dogs [1] (setting [5]) and 26% in the test on adult mongrel dogs [1] (setting [6]).

`COc1cc2c(C)nc(OC(=O)N(C)C)c(N)c2cc1OC` [Cmpd 39]: the change in vivo at 1.87 mg/kg in the test with adult mongrel dogs [1] (setting [3]) is 76%; in the test on adult mongrel dogs [1] (setting [4]), 16%; in the test on adult mongrel dogs [1] (setting [5]), -1%; in the test on adult mongrel dogs [1] (setting [6]), 73%.

Consider `CCCC(=O)Oc1nc(C)c2cc(OC)c(OC)cc2c1[N+](=O)[O-]` [Cmpd 41], for which the change in vivo at 1.87 mg/kg with adult mongrel dogs [1] (setting [3]) is 166%; in the test with adult mongrel dogs [1] (setting [4]) it was 29%; with adult mongrel dogs [1] (setting [5]) it was -34%; in the test with adult mongrel dogs [1] (setting [6]), 62%.

Turning to `COc1cc2c(C)nc(OC(=O)N3CCN(C(=O)OC(C)(C)C)CC3)c([N+](=O)[O-])c2cc1OC` [Cmpd 68], the change in vivo at 0.3 mg/kg in the test with adult mongrel dogs [2] (read-out: HR: percent change in heart rate, dose 0.3 mpk, relative to controls) was 11%; in the test on adult mongrel dogs [2] (read-out: MABP: percent change in mean arterial blood pressure, dose 0.3 mpk, relative to controls) it was -1%; in the test with adult mongrel dogs [2] (read-out: RBF: percent change in renal blood flow, dose 0.3 mpk, relative to controls) it was 17%; in the test with adult mongrel dogs [2] (read-out: RVR: percent change in renal vascular resistance, dose 0.3 mpk, relative to controls) it was -13%.

Turning to `CCOc1cc2c(C)nc(OC(=O)N3CCN(C(=O)OC(C)(C)C)CC3)c([N+](=O)[O-])c2cc1OC` [Cmpd 69], the change in vivo at 6.2 mg/kg in the test with adult mongrel dogs [2] (setting [10]) is 21%; in the test on adult mongrel dogs [2] (setting [11]), 6%; in the test on adult mongrel dogs [2] (setting [12]), 24%; with adult mongrel dogs [2] (setting [13]), -14%.

`C=CCNC(=O)Nc1c(OC(=O)N2CCN(C(=O)OC(C)(C)C)CC2)nc(C)c2cc(OC)c(OC)cc12` [Cmpd 75]: the change in vivo at 1.2 mg/kg with adult mongrel dogs [2] (setting [15]) is 12%; in the test with adult mongrel dogs [2] (setting [16]) it was 9%; in the test with adult mongrel dogs [2] (setting [17]) it was 27%; with adult mongrel dogs [2] (setting [18]), -15%.

On to `CCCCNC(=O)Nc1c(OC(=O)N2CCN(C(=O)OC(C)(C)C)CC2)nc(C)c2cc(OC)c(OC)cc12` [Cmpd 76], for which the change in vivo at 1.2 mg/kg in the test with adult mongrel dogs [2] (setting [15]) was -9%; with adult mongrel dogs [2] (setting [16]) it was -2%; in the test with adult mongrel dogs [2] (setting [17]) it was 23%; in the test with adult mongrel dogs [2] (setting [18]), -22%.

On to `COc1cc2c(C)nc(OCOC(=O)C(C)(C)C)c([N+](=O)[O-])c2cc1OC` [Cmpd 77], for which the change in vivo at 6.2 mg/kg in the test with adult mongrel dogs [2] (setting [7]) was 5%; with adult mongrel dogs [2] (setting [14]) it was -3%; in the test on adult mongrel dogs [2] (setting [8]) it was 7%; in the test on adult mongrel dogs [2] (setting [9]), -8%.

In the case of `CCCCNC(=O)Nc1c(OC(=O)N2CCNCC2)nc(C)c2cc(OC)c(OC)cc12` [Cmpd 80], the change in vivo at 1.2 mg/kg with adult mongrel dogs [2] (setting [15]) is 2%; in the test on adult mongrel dogs [2] (setting [16]), 0%; with adult mongrel dogs [2] (setting [17]), 25%; with adult mongrel dogs [2] (setting [18]), -16%.

For the compound `CCCCCC(=O)Nc1c(OC(=O)N(CC)CC)nc(C)c2cc(OC)c(OC)cc12` [Cmpd 81], the change in vivo at 6.2 mg/kg was -8% in the test with adult mongrel dogs [2] (setting [7]), 9% in the test with adult mongrel dogs [2] (setting [14]), 39% with adult mongrel dogs [2] (setting [8]) and -21% in the test on adult mongrel dogs [2] (setting [9]).

Values taken from patent US4880817A, “O-functionalized derivatives of substituted isoquinolin-3-ols having cardiotonic and/or phosphodiesterase fraction III inhibiting properties and/or renal vasodilating properties” (Ortho Pharmaceutical Corporation, priority 1987, dated 1989).
